Laboratory results taken from patent US20250313533A1, “QUINOLINE CARBOXYLIC ACID ESTER COMPOUND AND PREPARATION METHOD AND USE THEREOF” (priority 2019, published 2025).

Columns and labels:
[1] = system: soft rot in Chinese cabbages; test: Field test for controlling soft rot in Chinese cabbages; type: in vivo, Chinese cabbage; settings: 7 days after the last application
Method: (§1) In October 2019, tests were carried out in fields of Chinese cabbage, wild cabbage and lettuce in Tai'an, Shandong. The doses of the compounds 152 and 282 of the present disclosure (both prepared as dispersible granules with a mass fraction of 10%) used were 16.87 ga.i./hm^2 and 33.75 ga.i./hm^2, and the control agents used were 3% (by weight) wettable powder of zhongshengmycin and 33.5% (by weight) aqueous suspension of oxine-copper (both were commercially available). The dose of zhongshengmycin was 67.5 ga.i./hm^2, and the dose of oxine-copper was 337.5 ga.i./hm^2. Test and control agents were arranged in randomized blocks. Plot area was 15 m^2. Treatment was repeated 3 times. The route of application was spraying on stem and leaves. The application was performed 2 times in total at an interval of 7 days, and the efficacy investigation was performed 7 days after the last application. During the investigation, sampling was carried out at 5 points in each plot. Disease conditions of soft rot in Chinese cabbages, soft rot in lettuces and soft rot in wild cabbages were recorded according to the relevant technical standard of Pesticide Guidelines for the Field Efficacy Trials GB/T17980.114-2004, and the incidence rate of plants was calculated to further evaluate the control effect.

[2] = system: stem rot in sweet potatoes; test: whole plant or invertebrate; settings: read-out: efficacy against stem rot in sweet potatoes
[3] = system: soft rot in wild cabbages; test: Field test for controlling soft rot in wild cabbages; type: in vivo, wild cabbage; settings: 7 days after the last application
Method: as §1

[4] = system: indoor potted cucumber seedlings; test: Effect of improving growth and development of crops; type: in vivo; parameters: Rate of growth rate increase (%): concentration or dose not given beside the values; settings: versus blank control
Procedure, shortened: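 Before treatment, plant height and the second leaf's length and width are recorded. After 14 days these are repeated, chlorophyll is read by meter, and percentage increases in growth rate, leaf area and chlorophyll are computed.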

cucumber seedlings = test: Safety for plant growth after application; type: in vivo; settings: dosage 200 ppm
Procedure, shortened: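 Safety to the crop is assessed on cucumber seedlings in indoor pots by tracking how treatment alters leaf area, chlorophyll level and height growth rate.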

[5] = system: pathogenic bacteria causing black shank in potatoes; test: In vitro bactericidal activity, black shank in potatoes; type: cell-based; settings: read-out: inhibitory rate
[6] = system: pathogenic bacteria causing bacterial angular leaf spot in cucumbers; test: In vitro bactericidal activity, bacterial angular leaf spot in cucumbers; type: cell-based, pseudomonas; settings: read-out: inhibitory rate
[7] = system: pathogenic bacteria causing black rot in Chinese cabbages; test: In vitro bactericidal activity, black rot in Chinese cabbages; type: cell-based, xanthomonas; settings: Xanthomonas, read-out: inhibitory rate
[8] = system: pathogenic bacteria causing stem rot in sweet potatoes; test: In vitro bactericidal activity, stem rot in sweet potatoes; type: cell-based, dikia; settings: read-out: inhibitory rate
[9] = system: pathogenic bacteria causing bacterial wilt in cassava; test: organism not typed; type: cell-based; settings: read-out: inhibitory rate
[10] = system: pathogenic bacteria causing bacterial wilt in tobacco; test: whole plant or invertebrate; type: cell-based, ralstonia; settings: read-out: inhibitory rate
[11] = system: bacterial wilt in tobacco; test: whole plant or invertebrate; settings: Nicotiana tabacum, read-out: efficacy against bacterial wilt in tobacco
[12] = system: fruit blotch in watermelons; test: whole plant or invertebrate; settings: read-out: efficacy against fruit blotch in watermelons
black shank in potatoes = test: Living crops in vivo protective activity, potatoes (root irrigation); settings: Solanum tuberosum, read-out: efficacy against black shank in potatoes
Method: Root irrigation was carried out on the potatoes for tests according to the designed concentration of the agents. The dosage for each plant was 200 mL and was kept consistent (also for the control). The black shank bacteria were inoculated on the second day after the application. The results were investigated according to the disease condition.

soft rot in lettuces = test: Field test for controlling soft rot in lettuces; type: in vivo, lettuce; settings: 7 days after the last application
Method: as §1

[13] = system: pathogenic bacteria causing fire blight in pears; test: In vitro bactericidal activity, fire blight in pears; type: cell-based, erwinia; settings: Erwinia, read-out: inhibitory rate
[14] = system: soft rot in Chinese cabbages; test: whole plant or invertebrate; settings: 48 h, read-out: efficacy against soft rot in Chinese cabbages
bacterial blight in rice = test: whole plant or invertebrate; settings: Oryza sativa, read-out: efficacy against bacterial blight in rice
[15] = system: pathogenic bacteria causing bacterial blight in rice; test: whole plant or invertebrate; type: cell-based, xanthomonas; settings: read-out: inhibitory rate
[16] = system: pathogenic bacteria causing fruit blotch in watermelons; test: In vitro bactericidal activity, fruit blotch in watermelons; type: cell-based, acidovorax; settings: read-out: inhibitory rate
[17] = dose 16.87 g a.i./hm^2, 2 sprays
[18] = dose 33.75 g a.i./hm^2, 2 sprays

`CCOc1cc2c(cc1F)c(=O)c(C(=O)OCCOC)cn2C1CC1` [Compound 282, 2-methoxyethyl 1-cyclopropyl-6-fluoro-4-oxo-7-ethoxy-1,4-dihydroquinoline-3-carboxylate] was tested, and the “Control effect (%)” value [1, 17] was 82%, the “Control effect (%)” value [1, 18] was 90% and the pest or weed control at 5 ppm [2] was at least 90%. The pest or weed control at 10 ppm [2] was at least 90%, the “Control effect (%)” value [3, 17] was 80% and the “Control effect (%)” value [3, 18] was 87%. The “Rate of chlorophyll content increase (%)” value ([4]; 14 days after application) was 16%, the “Rate of growth rate increase (%)” value ([4]; plant height 14 days after application) was 12% and the “Rate of leaf area increase (%)” value ([4]; second leaf, 14 days after application) was 16%. The “safety for plant growth (discoloration, necrosis, wilt, malformation)” value (cucumber seedlings) was “safe for plant growth”, the inhibition at 1 ppm ([5]; dosage 1 ppm) was at least 90% and the inhibition at 5 ppm ([5]; dosage 5 ppm) was at least 90%. For the same molecule, the inhibition at 1 ppm ([6]; dosage 1 ppm) was at least 90%, the inhibition at 5 ppm ([6]; dosage 5 ppm) was at least 90% and the inhibition at 1 ppm ([7]; dosage 1 ppm) was at least 90%. The inhibition at 5 ppm ([7]; dosage 5 ppm) was at least 90%, the inhibition at 1 ppm ([8]; dosage 1 ppm) was at least 90% and the inhibition at 5 ppm ([8]; dosage 5 ppm) was at least 90%. The inhibition at 1 ppm [9] was at least 90%, the inhibition at 5 ppm [9] was at least 90% and the inhibition at 1 ppm [10] was at least 90%. For the same molecule, the inhibition at 5 ppm [10] was at least 90%, the pest or weed control at 5 ppm [11] was at least 90% and the pest or weed control at 10 ppm [11] was at least 90%. It also gave a pest or weed control at 5 ppm [12] of at least 90%, a pest or weed control at 10 ppm [12] of at least 90% and a pest or weed control at 5 ppm (black shank in potatoes; dosage 5 ppm) of at least 90%. For the same molecule, the pest or weed control at 10 ppm (black shank in potatoes; dosage 10 ppm) was at least 90%, the “Control effect (%)” value (soft rot in lettuces; [17]) was 73% and the “Control effect (%)” value (soft rot in lettuces; [18]) was 85%. The inhibition at 1 ppm ([13]; dosage 1 ppm) was at least 90%, the inhibition at 5 ppm ([13]; dosage 5 ppm) was at least 90% and the pest or weed control at 5 ppm [14] was at least 90%. It also gave a pest or weed control at 10 ppm [14] of at least 90%, a pest or weed control at 5 ppm (bacterial blight in rice) of at least 90% and a pest or weed control at 10 ppm (bacterial blight in rice) of at least 90%. For the same molecule, the inhibition at 1 ppm [15] was at least 90%, the inhibition at 5 ppm [15] was at least 90% and the inhibition at 1 ppm ([16]; dosage 1 ppm) was at least 90%. For the same molecule, the inhibition at 5 ppm ([16]; dosage 5 ppm) was at least 90%.
